Experimental data reported in PMC11645267, “Novel pharmacologic inhibition of lysine-specific demethylase 1 as a potential therapeutic for glioblastoma” (Cancer Gene Therapy, 2024).

System: KINGS1 and F3 cells
Assay: PARP cleavage (apoptosis) by western blot
Assay type: cell-based
Conditions: KINGS1 and F3, 5 μM
Excerpt: Super-enhancers consist of enhancer clusters with abundant binding of transcription factors and are highly enriched with H3K27ac marks. The H3K4me2 increased regions included the MYC locus and H3K4me2 de novo regions comprised Nestin and SOX2 loci (Fig. 2F, Supplementary Fig. S5A). These regions were also identified as super-enhancers in GSCs using data from our previous study (Fig. 2F). Compared to the large increase in H3K4me2 in these regions, changes in H3K4me3 were subtle after S2172 treatment (only 2582 regions were acquired modification) (Fig. 2C). Increasing the me2/me3 ratio at H3K4 is associated with reduced gene expression.
Supplementary Figure. S3 Shinjo K. et al […]
B. Western blot analysis of LSD1,MYC, Nestin, SOX2,and ACTB in same cells as shown in panel A. ACTB was used as a loading control. […] Quantification of signal intensities of the Western blot (right panel). […] Right panel: Quantification of band signal intensities from the Western blot. […] The ratio was calculated by dividing the cleaved PARP band intensity by the full-length PARP band intensity. […]
A. Left panel: Western blot analysis of H3K4me1, H3K4me2, H3K4me3, and H3K9me2 after treatment with either DMSO or S2172 5μM for 96 h in normal neural stem cell F3 . […] Right panel: Quantification of signal intensities of the Western blot. […]
C. […] Right panel: Quantification of band signal intensities from the Western blot. […]

## NC1CCC(NC2CC2c2cc(F)cc(F)c2OCc2ccccc2)CC1 (stereo not shown) [S2172]
  cleaved-PARP levels: not significantly increased
